According to article PMC5216056 (Nature Communications, 2017):

What was measured:
Rat recombinant TRPV4 = target: T1, Rat recombinant TRPV4 (Rattus norvegicus, UniProt Q9ERZ8); assay: cell-based; assay type: cell-based
T1 construct: expressed in transfected cells; host or cells: HEK293 (TRPV4-HEK-293, gift from HB Bradshaw, Indiana University)

[1] = tested on: AEA cellular uptake in U937 cells; assay: cells; assay type: cell-based, human; settings: 10 µM
Rat recombinant TRPM8 = target: T2, Rat recombinant TRPM8 (Rattus norvegicus, UniProt Q8R455); assay: TRP channel [Ca2+]i assay; assay type: cell-based; settings: agonist
T2 construct: expressed in transfected cells; host or cells: HEK293 (TRPM8-HEK-293, gift from Mario van der Stelt)

Rat recombinant TRPV3 = target: T3, Rat recombinant TRPV3 (Rattus norvegicus, UniProt Q4QYD9); assay: cell-based; assay type: cell-based
T3 construct: expressed in transfected cells; host or cells: HEK293 (TRPV3-HEK-293, gift from HB Bradshaw, Indiana University)
T3 sequence (Q4QYD9 1-791): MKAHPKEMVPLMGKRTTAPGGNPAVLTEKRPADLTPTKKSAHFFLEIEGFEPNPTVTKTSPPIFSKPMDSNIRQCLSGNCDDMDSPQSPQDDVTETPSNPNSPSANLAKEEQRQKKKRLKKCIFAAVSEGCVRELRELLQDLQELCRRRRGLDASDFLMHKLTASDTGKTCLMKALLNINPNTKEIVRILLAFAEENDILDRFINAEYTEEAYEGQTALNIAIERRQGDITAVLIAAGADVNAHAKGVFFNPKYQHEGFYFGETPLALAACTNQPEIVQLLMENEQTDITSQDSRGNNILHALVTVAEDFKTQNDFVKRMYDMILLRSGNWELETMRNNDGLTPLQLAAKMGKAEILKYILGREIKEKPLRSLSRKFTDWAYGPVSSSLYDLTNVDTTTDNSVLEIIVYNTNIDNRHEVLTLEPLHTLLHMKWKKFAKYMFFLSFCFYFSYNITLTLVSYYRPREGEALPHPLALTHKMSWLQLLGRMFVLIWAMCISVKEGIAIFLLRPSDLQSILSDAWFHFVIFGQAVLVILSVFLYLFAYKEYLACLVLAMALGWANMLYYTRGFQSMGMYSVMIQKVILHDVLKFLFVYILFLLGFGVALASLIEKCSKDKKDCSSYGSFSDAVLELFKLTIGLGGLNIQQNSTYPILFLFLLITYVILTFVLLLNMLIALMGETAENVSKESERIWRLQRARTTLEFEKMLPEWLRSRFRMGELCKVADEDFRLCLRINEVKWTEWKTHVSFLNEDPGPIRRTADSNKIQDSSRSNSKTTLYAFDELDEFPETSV

human NAPE-PLD = target: T4, human NAPE-PLD (Homo sapiens, UniProt Q6IQ20); assay: NAPE-PLD inhibition; assay type: biochemical; settings: 10 µM
T4 construct: Full length human cDNA NAPE-PLD was obtained from Natsuo Ueda; expressed in transfected cells; host or cells: HEK293T (transient), membrane fraction
Protocol: Full length human cDNA NAPE-PLD was obtained from Natsuo Ueda[58] and cloned into mammalian expression vector pcDNA3.1, containing a C-terminal Flag-tag and genes for ampicillin and neomycin resistance. All plasmids were grown in XL-10 Z-competent cells and prepped (Maxi Prep, Qiagen). Sequence analysis for the confirmation of the sequences was performed at the Leiden Genome Technology Centre.
HEK293T cells (source: Dutch Cancer Institute) were cultured at 37 °C and 7% CO2 in DMEM with glutamax, penicillin (100 μg ml^−1), streptomycin (100 μg ml^−1) and 10% New Born Calf Serum iron supplemented (Hyclone SH30072.03). Cells were passaged twice a week to appropriate confluence. Twenty-four hours before transfection 10^7 cells were seeded on a 15 cm dish. Two hours before transfection, the medium was refreshed. Transfection is performed with PEI in a ratio of 3:1 with human NAPE-PLD or Mock pcDNA3.1Neo, 20 μg per dish. Medium is refreshed after 24 h and cells are harvested after 72 h. Cell suspensions are centrifuged at 1,000g for 10 min, supernatant removed and pellets frozen at −80 °C until further use.
Cell pellets are re-suspended in lysis buffer 1: 20 mM Hepes, 2 mM DTT, 0.25 M sucrose, 1 mM MgCl2, 2.5 U ml^−1 benzonase and incubated 30 min on ice. The cytosolic fraction (supernatant) is separated from the membranes by ultra-centrifugation (32,000 rpm for 30 min 100,000g). The pellet is resuspended in buffer 2: 20 mM Hepes, 2 mM DTT (membrane fraction). All samples are stored at −80 °C. Enzyme concentrations are determined using a Bradford assay.
The membrane protein fraction from transient overexpression of NAPE-PLD in HEK293T cells was diluted to 0.4 mg ml^−1 in assay buffer: 50 mM Tris-HCl (pH 7.5), 0.02% Triton X-100, 150 mM NaCl (ref. [60]). […] Relevant concentrations of compounds are prepared in DMSO. The assay is performed in a dark Greiner 96-well plate, end volume 100 μl. The compound or DMSO is incubated with membrane protein lysate (final concentration 0.04 mg ml^−1) for 30 min at 37 °C. A sample without membrane protein lysate is incorporated for background subtraction. Then, substrate is added (final concentration 1 μM) and the measurement is started immediately on a TECAN infinite M1000 pro at 37 °C (excitation 485 nm, emission 535 nm), scanning every 2 min for 1 h.

hDAGL-α = target: T5, hDAGL-α (Homo sapiens, UniProt Q9Y4D2); assay: Biochemical DAGLα activity assay; settings: 10 µM
T5 construct: expressed in transfected cells; host or cells: HEK293T (transient), membrane preparation
T5 sequence (Q9Y4D2 1-1042): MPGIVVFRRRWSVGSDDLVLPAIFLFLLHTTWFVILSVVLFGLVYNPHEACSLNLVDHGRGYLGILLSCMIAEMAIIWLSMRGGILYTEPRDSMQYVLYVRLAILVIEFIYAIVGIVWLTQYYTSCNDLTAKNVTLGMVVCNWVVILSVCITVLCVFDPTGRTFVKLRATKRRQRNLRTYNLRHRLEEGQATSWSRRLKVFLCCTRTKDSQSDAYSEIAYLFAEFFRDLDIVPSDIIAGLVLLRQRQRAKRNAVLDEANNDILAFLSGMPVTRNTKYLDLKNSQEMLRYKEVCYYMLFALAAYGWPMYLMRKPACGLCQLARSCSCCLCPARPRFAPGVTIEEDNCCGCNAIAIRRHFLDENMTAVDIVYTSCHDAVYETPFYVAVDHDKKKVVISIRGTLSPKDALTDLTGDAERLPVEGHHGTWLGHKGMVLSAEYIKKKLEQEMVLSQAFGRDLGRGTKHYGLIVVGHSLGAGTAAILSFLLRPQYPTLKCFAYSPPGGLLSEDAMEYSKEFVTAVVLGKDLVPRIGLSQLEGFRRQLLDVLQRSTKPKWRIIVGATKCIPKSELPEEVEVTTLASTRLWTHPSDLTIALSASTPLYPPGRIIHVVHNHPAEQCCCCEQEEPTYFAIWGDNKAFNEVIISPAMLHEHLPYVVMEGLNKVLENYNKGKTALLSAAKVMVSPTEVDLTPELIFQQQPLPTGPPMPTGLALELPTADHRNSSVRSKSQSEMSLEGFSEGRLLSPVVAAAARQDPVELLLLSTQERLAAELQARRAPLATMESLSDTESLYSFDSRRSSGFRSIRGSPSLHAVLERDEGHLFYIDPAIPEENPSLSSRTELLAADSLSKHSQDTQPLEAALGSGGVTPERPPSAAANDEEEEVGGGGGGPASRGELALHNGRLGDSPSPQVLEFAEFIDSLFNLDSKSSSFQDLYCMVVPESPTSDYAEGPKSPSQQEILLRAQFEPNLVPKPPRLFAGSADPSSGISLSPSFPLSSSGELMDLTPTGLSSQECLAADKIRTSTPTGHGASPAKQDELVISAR
Protocol: (§1) Cell culture and membrane preparation were performed as previously described. HEK293T cells (source: Dutch Cancer Institute) were grown in DMEM with stable glutamine and phenolred (PAA), 10% New Born Calf serum, penicillin and streptomycin. Cells were passaged every 2–3 days by resuspending in medium and seeding them to appropriate confluence. Membranes were prepared from transiently transfected HEK293T cells. One day prior to transfection 10^7 cells were seeded in a 15 cm petri dish. Cells were transfected by the addition of a 3:1 mixture of polyethyleneimine (60 μg) and plasmid DNA (20 μg) in 2 ml serum-free medium. The medium was refreshed after 24 h, and after 72 h the cells were harvested by suspending them in 20 ml medium. The suspension was centrifuged for 10 min at 1000, rpm, and the supernatant was removed. The cell pellet was stored at −80 °C until use. Cell pellets were thawed on ice and suspended in lysis buffer A (20 mM HEPES, 2 mM DTT, 0.25 M sucrose, 1 mM MgCl2, […] Benzonase). The suspension was homogenized by polytrone (3 × 7 s) and incubated for 30 min on ice. The suspension was subjected to ultracentrifugation (100,000 × g, 30 min, 4 °C, Beckman Coulter, Type Ti70 rotor) to yield the cytosolic fraction in the supernatant and the membrane fraction as a pellet. The pellet was resuspended in lysis buffer B (20 mM HEPES, 2 mM DTT). The protein concentration was determined with Quick Start Bradford assay (Biorad). The protein fractions were diluted to a total protein concentration of 1 mg ml^−1 and stored in small aliquots at −80 °C until use.
hDAGL-α activity was measured by the extent of the hydrolysis of para-nitrophenylbutyrate (PNP-butyrate) by membrane preparations from HEK293T cells (source: Dutch Cancer Institute) transiently transfected with hDAGL-α (ref. [43]). Percentage of inhibition of reference ligands was determined in comparison with an untreated control. Reactions were performed in 50 mM pH 7.2 HEPES buffer with 0.05 μg μl^−1 final protein concentration hDAGL-α transfected protein.

MAGL = target: T6, MAGL (Homo sapiens, UniProt Q99685); assay: Biochemical MAGL activity assay; settings: 10 µM
T6 construct: expressed in transfected cells; host or cells: HEK293T (transient), membrane preparation
T6 sequence (Q99685 1-303): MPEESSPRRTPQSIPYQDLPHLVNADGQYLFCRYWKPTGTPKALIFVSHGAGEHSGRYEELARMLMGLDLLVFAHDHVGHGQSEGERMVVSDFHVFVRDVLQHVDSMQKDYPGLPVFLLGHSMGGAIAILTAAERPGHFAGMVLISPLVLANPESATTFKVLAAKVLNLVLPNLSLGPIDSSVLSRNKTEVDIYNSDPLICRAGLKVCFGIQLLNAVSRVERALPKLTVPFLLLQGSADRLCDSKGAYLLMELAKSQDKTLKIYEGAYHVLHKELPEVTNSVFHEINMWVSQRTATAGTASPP
Protocol: as §1
Percentage of inhibition of reference ligands was determined in comparison with an untreated control. […] Fluorescence was measured in 5 min intervals for 60 min.

Rat recombinant TRPV2 = target: T7, Rat recombinant TRPV2 (Rattus norvegicus, UniProt Q9WUD2); assay: cell-based; assay type: cell-based
T7 construct: expressed in transfected cells; host or cells: HEK293 (plasmid a gift from HB Bradshaw, Indiana University)
T7 sequence (Q9WUD2 1-761): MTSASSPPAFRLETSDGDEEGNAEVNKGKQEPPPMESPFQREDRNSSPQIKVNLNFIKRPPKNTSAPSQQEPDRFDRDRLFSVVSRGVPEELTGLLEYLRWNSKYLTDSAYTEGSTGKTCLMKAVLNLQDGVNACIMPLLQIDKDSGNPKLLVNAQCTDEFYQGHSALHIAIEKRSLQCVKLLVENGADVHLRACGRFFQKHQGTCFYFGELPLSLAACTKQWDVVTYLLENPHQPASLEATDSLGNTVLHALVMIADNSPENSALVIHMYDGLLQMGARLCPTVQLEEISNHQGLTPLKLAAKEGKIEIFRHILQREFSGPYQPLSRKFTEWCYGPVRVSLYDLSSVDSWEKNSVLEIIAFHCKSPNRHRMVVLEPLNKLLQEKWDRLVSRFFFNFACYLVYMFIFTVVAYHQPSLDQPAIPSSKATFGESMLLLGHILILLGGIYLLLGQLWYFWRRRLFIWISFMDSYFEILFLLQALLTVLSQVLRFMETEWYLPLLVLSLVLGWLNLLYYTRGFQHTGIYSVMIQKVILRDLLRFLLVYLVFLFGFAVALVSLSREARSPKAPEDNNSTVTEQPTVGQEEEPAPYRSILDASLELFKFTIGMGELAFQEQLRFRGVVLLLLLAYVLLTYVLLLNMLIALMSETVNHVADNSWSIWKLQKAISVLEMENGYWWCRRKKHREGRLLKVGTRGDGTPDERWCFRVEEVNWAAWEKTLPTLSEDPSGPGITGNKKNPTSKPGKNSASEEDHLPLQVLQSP

T2 sequence (Q8R455 whole entry): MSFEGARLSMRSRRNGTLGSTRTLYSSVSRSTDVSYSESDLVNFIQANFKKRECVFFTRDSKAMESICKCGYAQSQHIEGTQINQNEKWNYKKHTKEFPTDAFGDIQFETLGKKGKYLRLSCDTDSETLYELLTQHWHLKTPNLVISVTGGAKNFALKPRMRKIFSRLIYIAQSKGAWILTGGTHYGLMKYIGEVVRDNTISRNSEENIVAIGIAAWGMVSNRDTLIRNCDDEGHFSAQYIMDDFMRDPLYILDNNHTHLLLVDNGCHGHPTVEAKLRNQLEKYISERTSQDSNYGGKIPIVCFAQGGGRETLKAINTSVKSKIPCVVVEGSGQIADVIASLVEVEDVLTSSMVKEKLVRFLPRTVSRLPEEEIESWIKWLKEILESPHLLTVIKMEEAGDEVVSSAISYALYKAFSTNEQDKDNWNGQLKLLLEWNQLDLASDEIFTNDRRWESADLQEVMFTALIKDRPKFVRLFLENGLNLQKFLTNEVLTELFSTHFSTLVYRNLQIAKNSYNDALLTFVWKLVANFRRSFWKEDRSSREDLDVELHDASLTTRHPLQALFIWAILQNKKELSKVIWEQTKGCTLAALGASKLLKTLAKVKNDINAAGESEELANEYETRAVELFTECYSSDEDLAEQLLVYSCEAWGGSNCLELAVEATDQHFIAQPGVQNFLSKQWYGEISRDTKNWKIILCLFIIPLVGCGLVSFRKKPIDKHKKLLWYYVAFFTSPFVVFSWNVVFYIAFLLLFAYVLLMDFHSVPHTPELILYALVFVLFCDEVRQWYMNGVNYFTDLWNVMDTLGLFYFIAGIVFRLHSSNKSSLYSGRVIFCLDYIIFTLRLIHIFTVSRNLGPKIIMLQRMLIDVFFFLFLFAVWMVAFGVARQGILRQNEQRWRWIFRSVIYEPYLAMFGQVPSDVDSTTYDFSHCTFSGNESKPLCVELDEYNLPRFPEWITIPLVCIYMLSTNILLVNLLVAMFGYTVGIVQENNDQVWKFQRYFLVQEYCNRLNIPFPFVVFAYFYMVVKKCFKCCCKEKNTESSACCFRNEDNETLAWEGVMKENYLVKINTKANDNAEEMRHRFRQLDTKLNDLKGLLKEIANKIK
T1 sequence (Q9ERZ8 whole entry): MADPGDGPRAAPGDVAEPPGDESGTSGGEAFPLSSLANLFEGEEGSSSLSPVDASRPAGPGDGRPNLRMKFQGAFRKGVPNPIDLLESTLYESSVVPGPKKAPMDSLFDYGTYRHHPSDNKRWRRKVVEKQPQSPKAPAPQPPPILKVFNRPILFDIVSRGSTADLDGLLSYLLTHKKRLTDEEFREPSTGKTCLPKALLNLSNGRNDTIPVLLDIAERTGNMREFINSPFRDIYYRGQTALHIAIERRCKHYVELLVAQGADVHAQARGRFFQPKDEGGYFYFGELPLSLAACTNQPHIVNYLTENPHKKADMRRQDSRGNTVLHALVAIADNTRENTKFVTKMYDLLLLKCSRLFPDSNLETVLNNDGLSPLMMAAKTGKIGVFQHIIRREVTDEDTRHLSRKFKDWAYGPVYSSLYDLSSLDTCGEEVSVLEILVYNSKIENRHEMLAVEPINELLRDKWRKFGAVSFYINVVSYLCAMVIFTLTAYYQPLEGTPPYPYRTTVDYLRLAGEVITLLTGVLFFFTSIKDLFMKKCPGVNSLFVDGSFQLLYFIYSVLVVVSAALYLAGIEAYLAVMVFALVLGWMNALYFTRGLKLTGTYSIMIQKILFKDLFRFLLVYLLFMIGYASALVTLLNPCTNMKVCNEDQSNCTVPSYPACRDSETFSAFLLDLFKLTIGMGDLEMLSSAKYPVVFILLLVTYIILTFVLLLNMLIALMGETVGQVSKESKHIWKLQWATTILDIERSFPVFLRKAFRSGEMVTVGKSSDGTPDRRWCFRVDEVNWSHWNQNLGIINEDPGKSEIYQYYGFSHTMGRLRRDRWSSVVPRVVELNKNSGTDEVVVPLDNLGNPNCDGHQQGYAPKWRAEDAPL
T4 sequence (Q6IQ20 whole entry): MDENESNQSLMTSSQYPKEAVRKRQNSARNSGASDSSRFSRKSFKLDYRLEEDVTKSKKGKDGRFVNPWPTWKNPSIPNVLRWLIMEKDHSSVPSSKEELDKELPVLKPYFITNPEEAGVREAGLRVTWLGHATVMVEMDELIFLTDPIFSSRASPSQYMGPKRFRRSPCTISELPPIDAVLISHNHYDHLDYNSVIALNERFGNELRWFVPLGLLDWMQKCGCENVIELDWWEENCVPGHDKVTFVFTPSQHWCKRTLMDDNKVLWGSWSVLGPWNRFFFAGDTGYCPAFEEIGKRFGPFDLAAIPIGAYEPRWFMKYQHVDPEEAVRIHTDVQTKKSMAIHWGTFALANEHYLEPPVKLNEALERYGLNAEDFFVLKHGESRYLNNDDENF

CCCCCCCCCC(=O)O[C@@H]1[C@@H](C)[C@@]2(O)[C@@H](C=C(CO)C[C@@]3(O)C(=O)C(C)=C[C@@H]23)[C@@H]2C(C)(C)[C@]12OC(=O)CCCCCCCCC [4α-PDD, 4α-phorbol 12,13-didecanoate]
TRPV4 Efficacy (% ionomycin 4μM) (Rat recombinant TRPV4): 51.9±1.7%
EC50 (Rat recombinant TRPV4; read-out: TRPV4 Potency EC50): 460 ± 70 nM

CCCCCCCC/C=C\CCCCCCCC(=O)N[C@@H](CO)Cc1ccc(O)cc1 [OMDM-2]
AEA cellular uptake inhibition, positive controls [1]: 59.7±6.6%

CCCCC/C=C\C/C=C\C/C=C\C/C=C\CCCC(=O)NCc1ccoc1 [UCM707]
AEA cellular uptake inhibition, positive controls [1]: 71.5±8.0%

O=C1NC(c2cccc([N+](=O)[O-])c2)=CCN1c1ccccc1O [icilin]
TRPM8 efficacy (Rat recombinant TRPM8): 75.1±1.1
EC50 (Rat recombinant TRPM8; read-out: TRPM8 potency EC50): 110 ± 10 nM

Cc1ccc(C(C)C)c(O)c1 [thymol]
TRPV3 Efficacy (% ionomycin 4μM) (Rat recombinant TRPV3): 34.7±0.2%
EC50 (Rat recombinant TRPV3; read-out: TRPV3 Potency EC50): 84100 ± 1600 nM

CCCCCc1cc(O)c2c(c1)OC(C)(C)[C@@H]1CCC(C)=C[C@@H]21 [Δ9-THC, Δ^9-tetrahydrocannabinol]
NAPE-PLD % inhibition at 10 µM ± SD (human NAPE-PLD): 0 ± 12%
DAGL % inhibition at 10 µM ± SD (hDAGL-α): -9 ± 12%
MAGL % inhibition at 10 µM ± SD (MAGL): 7 ± 17%

lysophosphatidylcholine [LPC]
TRPV2 Efficacy (% ionomycin 4μM) (Rat recombinant TRPV2): 91.7±0.5%
EC50 (Rat recombinant TRPV2; read-out: TRPV2 Potency EC50): 3400 ± 20 nM
